Experimental data from US20060281791A1, “Methods of increasing proliferation of adult mammalian cardiomyocytes through p38 map kinase inhibition” (CHILDREN'S MEDICAL CENTER CORPORATION, priority 2005, published 2006).

System: myocardial infarction in adult rats
Assay: Fractional shortening (echocardiography) after myocardial infarction
Type: in vivo, rat
Description: The p38 inhibitors were tested for in vivo effect following myocardial infarct. For the evaluation of left ventricular function, transthoracic echocardiogram can be performed on the rats after myocardial infarction 1 day or 14 days right. Rats can be anesthetized with 4-5% isoflurane in an induction chamber. The chest can be shaved, and the rats can be placed in dorsal decubitus position and intubated for continuous ventilation. 1-2% isoflurane can be continuously supplied via a mask. 3 electrodes can be adhered to their paws to record the electrocardiographic tracing simultaneously with the cardiac image identifying the phase of a cardiac cycle.
Echocardiograms can be performed with a commercially available echocardiography system equipped with 7.5 MHz phased-array transducer (Philips-Hewlett-Packard). The transducer can be positioned on the left anterior side of the chest. Longitudinal images of the heart can be obtained, including the left ventricle, atrium, the mitral valve and the aorta, followed by the cross-sectional images from the plane of the base to the left ventricular apical region. M-mode tracings can be obtained at the level below the tip of the mitral valve leaflets at the level of the papillary muscles. Fractional shorting (FS) can be calculated as a measure of systolic function, according to the M-mode tracing from the cross-sectional view: maximal LV end-diastolic diameter (at the time of maximal cavity dimension), minimal LV end-systolic diameter (at the time of maximum anterior motion of the posterior wall), FS (%)={(LVEDD−LVESD)/LVEDD}×100.
To determine whether p38 inhibition/FGF1 stimulation can induce cardiomyocyte proliferation in vivo and whether it has a positive effect on cardiac function after cardiac injury we created myocardial infarctions (MI) in adult rats (250 g) by coronary artery ligation. The p38 inhibitor SB203580 HCl or its vehicle, saline, were injected intraperitoneal every three days for the first month of the study. FGF1 or its carrier BSA was injected mixed with self-assembling peptides once into the infarct border zone immediately after coronary artery ligation. We injecting a total of 80 μl of 400 ng/ml FGF1, given at 3 different injection sites, into 400 mg of infarcted myocardium estimated to deliver a FGF 1 concentration to the cardiomyocytes of approximately 50 to 100 ng/ml. Animals were analyzed 24 hours, 2 weeks, and 3 month after surgery. We performed two blinded and randomized studies using 62 rats for the 2 week and 61 rats for the 3 month experiment, with at least 10 animals in each experimental group. Animals were treated with saline plus BSA (control), SB203580 HCl plus BSA (p38i), saline plus FGF1 (FGF1), or SB203580 HCl plus FGF1 (p38i/FGF1).
Animal experiments were performed in accordance with guidelines of Children's Hospital in Boston and were approved by the Harvard Medical School Standing Committee on Animals. Myocardial infarction (MI) was produced in ˜250 gm male Sprague-Dawley rats (Charles River and Harlan) as described previously (Hsieh et al., 2006). Briefly, rats were anesthetized by pentobarbital and, following tracheal intubation, the hearts were exposed via left thoracotomy. The left coronary artery was identified after pericardiotomy and was ligated by suturing with 6-0 prolene at the location ˜3mm below the left atrial appendix. For the sham operation, suturing was performed without ligation. […]

**Q.** Which results are given for FGF1: growth factor FGF1 (R&D Systems)?
**A.** improvement of fractional shortening (3 month after infarction): maintained; left ventricular fractional shortening (24 hours after MI): significantly improved; improvement of fractional shortening (day 14 after infarction): maintained
